Measured values published in the CombiSolv-Exp solvation set (Vermeire and Green 2021).

Assay: solvent given as SMILES

Compound: O=C(O)CCCCC(=O)O
- solvation free energy, 298 K (in CC(C)(C)O): -13.7 kcal/mol
- solvation free energy, 298 K (in CC(C)=O): -13.1 kcal/mol
- solvation free energy, 298 K (in CC(C)O): -13.5 kcal/mol
- solvation free energy, 298 K (in CCCCO): -13.2 kcal/mol
- solvation free energy, 298 K (in CCCO): -13.7 kcal/mol
- solvation free energy, 298 K (in CCO): -13.7 kcal/mol
- solvation free energy, 298 K (in CO): -14 kcal/mol
- solvation free energy, 298 K (in O): -12.9 kcal/mol
- solvation free energy, 298 K (in O=C1CCCCC1): -12.9 kcal/mol

Compound: CCCCS
- solvation free energy, 298 K (in O): -0.88 kcal/mol

Compound: c1ccc2nc3ccccc3cc2c1
- solvation free energy, 298 K (in O): -6.75 kcal/mol

Compound: Clc1cc(Cl)c2c(c1Cl)Oc1ccccc1O2
- solvation free energy, 298 K (in O): -4.05 kcal/mol

Compound: Oc1ccc(O)cc1
- solvation free energy, 298 K (in CCCCCC): -6.25 kcal/mol
- solvation free energy, 298 K (in CCCCCCCC): -6.58 kcal/mol
- solvation free energy, 298 K (in CCCCOC(C)=O): -12.2 kcal/mol
- solvation free energy, 298 K (in CCOC(C)=O): -12.3 kcal/mol
- solvation free energy, 298 K (in Cc1ccc(C)cc1): -8.81 kcal/mol
- solvation free energy, 298 K (in Cc1cccc(C)c1): -8.88 kcal/mol
- solvation free energy, 298 K (in Cc1ccccc1C): -8.88 kcal/mol
- solvation free energy, 298 K (in O): -12.1 kcal/mol

Compound: CCCCOCC(C)O (stereo unspecified)
- solvation free energy, 298 K (in O): -5.73 kcal/mol

Compound: Clc1cc(-c2cc(Cl)c(Cl)c(Cl)c2Cl)c(Cl)c(Cl)c1Cl
- solvation free energy, 298 K (in CCCCCCCCO): -15.2 kcal/mol
- solvation free energy, 298 K (in O): -3.77 kcal/mol

Compound: OCCOCCOCCO
- solvation free energy, 298 K (in CCCCCCC): -7.04 kcal/mol

Compound: CC(=O)N1CCCC1
- solvation free energy, 298 K (in O): -9.8 kcal/mol

Compound: CCCS
- solvation free energy, 298 K (in CC(C)CC(C)(C)C): -3.78 kcal/mol
- solvation free energy, 298 K (in O): -0.99 kcal/mol

Compound: Clc1cc(Cl)c(-c2cc(Cl)c(Cl)cc2Cl)cc1Cl
- solvation free energy, 298 K (in CCCCCCCCO): -12.9 kcal/mol
- solvation free energy, 298 K (in O): -3.1 kcal/mol

Compound: CCNc1nc(NCC)nc(OC)n1
- solvation free energy, 298 K (in O): -10.6 kcal/mol

Compound: FC(F)(F)c1cccc(C(F)(F)F)c1
- solvation free energy, 298 K (in O): 1.07 kcal/mol

Compound: Cc1[nH]n(-c2ccccc2)c(=O)c1C(=O)c1ccccc1
- solvation free energy, 298 K (in O): -11.6 kcal/mol

Compound: CCCCCCCI
- solvation free energy, 298 K (in O): 0.27 kcal/mol

Compound: ClC1=C(Cl)C2(Cl)C3C(Cl)CC(Cl)C3C1(Cl)C2(Cl)Cl (stereo unspecified)
- solvation free energy, 298 K (in O): -3.44 kcal/mol

Compound: Cc1cccc(C)n1
- solvation free energy, 298 K (in CC(C)CC(C)(C)C): -5.29 kcal/mol
- solvation free energy, 298 K (in O): -4.59 kcal/mol

Compound: CCBr
- solvation free energy, 298 K (in Brc1cccc2ccccc12): -3.23 kcal/mol
- solvation free energy, 298 K (in C=CCCCCCCCCCCCCCC): -2.91 kcal/mol
- solvation free energy, 298 K (in CC(=O)N(C)C): -3.44 kcal/mol
- solvation free energy, 298 K (in CC(=O)OCc1ccccc1): -3.32 kcal/mol
- solvation free energy, 298 K (in CC(C)CC(C)(C)C): -2.95 kcal/mol
- solvation free energy, 298 K (in CCC(C)=O): -3.53 kcal/mol
- solvation free energy, 298 K (in CCCCCC): -3.14 kcal/mol
- solvation free energy, 298 K (in CCCCCCC): -3.04 kcal/mol
- solvation free energy, 298 K (in CCCCCCCC): -2.99 kcal/mol
- solvation free energy, 298 K (in CCCCCCCCO): -2.88 kcal/mol
- solvation free energy, 298 K (in CCCCCl): -3.51 kcal/mol
- solvation free energy, 298 K (in CCCCO): -3.03 kcal/mol
- solvation free energy, 298 K (in CCO): -3.03 kcal/mol
- solvation free energy, 298 K (in CCOC(C)=O): -3.53 kcal/mol
- solvation free energy, 298 K (in CN(C)C=O): -3.22 kcal/mol
- solvation free energy, 298 K (in Cc1ccc(C)cc1): -3.41 kcal/mol
- solvation free energy, 298 K (in ClC(Cl)(Cl)Cl): -3.45 kcal/mol
- solvation free energy, 298 K (in ClC(Cl)Cl): -3.77 kcal/mol
- solvation free energy, 298 K (in ClCCCl): -3.6 kcal/mol
- solvation free energy, 298 K (in Clc1ccccc1): -3.51 kcal/mol
- solvation free energy, 298 K (in N#Cc1ccccc1): -3.41 kcal/mol
- solvation free energy, 298 K (in O): -0.74 kcal/mol
- solvation free energy, 298 K (in O=C1CCCCC1): -3.55 kcal/mol
- solvation free energy, 298 K (in c1ccc2ncccc2c1): -3.31 kcal/mol

Compound: CC1=CCC(=C(C)C)CC1
- solvation free energy, 298 K (in O): 0.16 kcal/mol

Compound: CCN(CC)N=O
- solvation free energy, 298 K (in CC(C)CC(C)(C)C): -5.28 kcal/mol
- solvation free energy, 298 K (in O): -5.46 kcal/mol

Compound: O=C(O)CCCCCCCCC(=O)O
- solvation free energy, 298 K (in CCC(C)O): -17 kcal/mol
- solvation free energy, 298 K (in CCCCCCO): -16.7 kcal/mol
- solvation free energy, 298 K (in CCCCCO): -16.9 kcal/mol
- solvation free energy, 298 K (in CCCCO): -17.1 kcal/mol
- solvation free energy, 298 K (in CCCO): -17.2 kcal/mol

Compound: COc1ccccc1
- solvation free energy, 298 K (in CCCCCCC): -5.35 kcal/mol
- solvation free energy, 298 K (in CCCCCCCCCCCCCCCC): -5.21 kcal/mol
- solvation free energy, 298 K (in CCCCCCCCO): -5.46 kcal/mol
- solvation free energy, 298 K (in O): -2.53 kcal/mol
- solvation free energy, 298 K (in [2H]O[2H]): -2.62 kcal/mol

Compound: C1CNC1
- solvation free energy, 298 K (in O): -5.56 kcal/mol

Compound: O=C(O)c1ccccc1[N+](=O)[O-]
- solvation free energy, 298 K (in CCCCCCCCO): -12.5 kcal/mol

Compound: Cc1ccc(N)cc1
- solvation free energy, 298 K (in CC(C)CC(C)(C)C): -6.29 kcal/mol
- solvation free energy, 298 K (in CCCCCC): -6.06 kcal/mol
- solvation free energy, 298 K (in CCCCCCC): -6.14 kcal/mol
- solvation free energy, 298 K (in CCCCCCCC): -6.29 kcal/mol
- solvation free energy, 298 K (in Cc1cccc(C)c1): -7.26 kcal/mol
- solvation free energy, 298 K (in Cc1ccccc1C): -7.27 kcal/mol

Compound: CN1C(C(=O)Nc2ccccn2)=C(O)c2ccccc2S1(=O)=O
- solvation free energy, 298 K (in CN(C)C=O): -21 kcal/mol
- solvation free energy, 298 K (in NC=O): -19.3 kcal/mol
- solvation free energy, 298 K (in O): -15.8 kcal/mol

Compound: CCCCCCC(C)O (stereo unspecified)
- solvation free energy, 298 K (in CCCCCCC): -5.86 kcal/mol
- solvation free energy, 298 K (in O): -3.77 kcal/mol

Compound: CC(=O)CCCC(C)C
- solvation free energy, 298 K (in NC=O): -4.76 kcal/mol
- solvation free energy, 298 K (in O): -3 kcal/mol

Compound: CCCCI
- solvation free energy, 298 K (in ClC(Cl)(Cl)Cl): -5.57 kcal/mol
- solvation free energy, 298 K (in O): -0.25 kcal/mol

Compound: O=Nc1c(O)ccc2ccccc12
- solvation free energy, 298 K (in O): -7.31 kcal/mol

Compound: C=C(C)C1CC=C(C)C(OC=O)C1 (stereo unspecified)
- solvation free energy, 298 K (in O): -3.82 kcal/mol

Compound: N#Cc1ccc(O)cc1
- solvation free energy, 298 K (in O): -10.2 kcal/mol

Compound: Cc1cc(C)nc(NS(=O)(=O)c2ccc(N)cc2)n1
- solvation free energy, 298 K (in O): -20 kcal/mol

Compound: C#CCCCCCCC
- solvation free energy, 298 K (in O): 0.74 kcal/mol

Compound: Cc1cccc(Nc2ccccc2C(=O)O)c1C
- solvation free energy, 298 K (in O): -6.78 kcal/mol
